{
  "source": "patent US20240268433A1",
  "about": "“Nutritional Compositions for Preserving Muscle Mass” (Dutch Medical Food B.V., priority 2021, published 2024)",
  "origin": "cited, not measured here",
  "key": {"[1]": {"system": "elderly adults exposed to bedrest", "settings": "bed rest induced muscle atrophy"}, "[2]": {"system": "female individuals that complain about their sleep quality"}, "[3]": {"system": "adults between the age of 25 and 59 years"}, "GABAA receptor": {"system": "GABAA receptor", "settings": "chicken; administered with serine"}},
  "data": [
    {"compound": "CC(C)(O)CC(=O)O", "note": "[HMB, Beta-hydroxy beta-methylbutyrate]", "values": [
      {"measurement": "derangements in skeletal muscle metabolism and mitochondria", "setting": "[1]", "value": "able to attenuate and prevent derangements in skeletal muscle metabolism and mitochondria"}
    ]},
    {"compound": "NCC(=O)O", "note": "[glycine]", "values": [
      {"measurement": "daytime sleepiness", "setting": "[2]; especially in the morning", "value": "positive effect"},
      {"measurement": "subjective quality of sleep", "setting": "[2]; ingestion prior to sleep", "value": "beneficial effect on the subjective quality of sleep"}
    ]},
    {"compound": "N[C@@H](CO)C(=O)O", "note": "[serine]", "values": [
      {"measurement": "resistance or rebound insomnia after discontinuation of ingestion", "setting": "[3]; after discontinuation of ingestion", "value": "did not appear to suffer from resistance or occurrence of rebound insomnia"},
      {"measurement": "quality of sleep (sleep initiation, nighttime awakenings)", "setting": "[3]; ingestion about 30 minutes before going to sleep", "value": "beneficial effect on the quality of sleep"}
    ]},
    {"compound": "picrotoxin", "values": [
      {"measurement": "effect on sedative and hypnotic effect of serine", "setting": "GABAA receptor", "value": "attenuated the sedative and hypnotic effect of serine"}
    ]}
  ]
}
